Measured values reported in US20250002467A1, “DESIGN, SYNTHESIS AND MECHANISMS OF ANTICANCER ACTIVITY OF NEW ACETYLATED 5-AMINOSALICYLATE-THIAZOLINONE HYBRID DERIVATIVES” (University of Sharjah, priority 2023, published 2025).

Columns and labels:
MCF7 = assay: SRB cytotoxicity assay, MCF7; format: cell-based
Source text: (§1) Eight different cancer cell lines were acquired from the Radiobiology and Experimental Radio Oncology lab, University Medical Center, Hamburg University, Hamburg, Germany. MCF7, MDA-MB-231 (breast cancer), and A549 (lung cancer) cells were maintained in RPMI medium while HCT116 (colon cancer), HepG2 (liver cancer), U87, U373 (glioblastoma), and HeLa (cervical cancer) were maintained in DMEM supplemented with 10% FBS and 1% penicillin/streptomycin (Sigma Aldrich, Missouri, USA). Normal human fibroblast (F180) cells were maintained in DMEM supplemented with 15% FBS. Normal human mammary epithelial cell line (HME1) were maintained in DMEM/F-12 medium supplemented with 10% FBS. All incubations were done at 37° C. in a humidified atmosphere of 5% CO2. All cell lines were authenticated by short tandem repeat (STR) profiling. The CDK4 knockout cells (provided by Dr. Samrein Ahmed, University of Sharjah, United Arab Emirates) were generated by CRISPR-CAS9 technology and were maintained in DMEM supplemented with 10% FBS.
(§2) The cytotoxic effects of HH32 and HH33 compounds were evaluated at various concentrations ranging from 0.0001 to 100 μM by sulphrhodamine-B (SRB) assay as described previously. The anti-proliferative activity was expressed as growth inhibitory concentration (IC50) values, which were calculated by the sigmoidal dose-response curve fitting method using Graph pad prism 6 software (GraphPad Software, San Diego, CA, USA).

HCT-116 = assay: SRB cytotoxicity assay, HCT-116; format: cell-based
Source text: as §1, §2

HeLa = assay: SRB cytotoxicity assay, HeLa; format: cell-based
Source text: as §1, §2

A549 = assay: SRB cytotoxicity assay, A549; format: cell-based
Source text: as §1, §2

HepG2 = assay: SRB cytotoxicity assay, HepG2; format: cell-based
Source text: as §1, §2

MDA-MB-231 = assay: SRB cytotoxicity assay, MDA-MB-231; format: cell-based
Source text: as §1, §2

U87 = assay: SRB cytotoxicity assay, U87; format: cell-based
Source text: as §1, §2

U373 = assay: SRB cytotoxicity assay, U373; format: cell-based
Source text: as §1, §2

F-180 = assay: SRB cytotoxicity assay, normal fibroblast F-180; format: cell-based, human; conditions: F-180 normal fibroblast, mean ± SEM
Source text: as §1, §2

HME1 = assay: SRB cytotoxicity assay, normal mammary epithelial HME1; format: cell-based, human; conditions: mean ± SEM
Source text: as §1, with “The CDK4 knockout cells (provided by Dr. Samrein Ahmed, University of Sharjah, United Arab Emirates) were generated by CRISPR-CAS9 technology and were maintained in DMEM supplemented with 10% FBS.” left out
as §2

COc1cccc2c1C(=O)c1c(O)c3c(c(O)c1C2=O)C[C@@](O)(C(=O)CO)C[C@@H]3O[C@H]1C[C@H](N)[C@H](O)[C@H](C)O1 [DOX, Doxorubicin, reference compound]
Selectivity index (MCF7; F180 versus MCF7): 4.8 | Selectivity index (MCF7; HME1 versus MCF7): 18.7 | IC50 (MCF7; Homo sapiens, MCF7, SRB, mean ± SEM): 60 nM | Selectivity index (HCT-116; F180 versus HCT116): 2.6 | Selectivity index (HCT-116; HME1 versus HCT116): 10.2 | IC50 (HCT-116; Homo sapiens, HCT-116, SRB, mean ± SEM): 110 nM | Selectivity index (HeLa; F180 versus HeLa): 0.6 | Selectivity index (HeLa; HME1 versus HeLa): 2.4 | IC50 (HeLa; Homo sapiens, HeLa, SRB, mean ± SEM): 460 ± 460 nM | Selectivity index (A549; F180 versus A549): 0.47 | Selectivity index (A549; HME1 versus A549): 1.81 | IC50 (A549; Homo sapiens, A549, SRB, mean ± SEM): 620 ± 590 nM | Selectivity index (HepG2; F180 versus HepG2): 0.78 | Selectivity index (HepG2; HME1 versus HepG2): 3.02 | IC50 (HepG2; Homo sapiens, HepG2, SRB, mean ± SEM): 370 ± 120 nM | Selectivity index (MDA-MB-231; F180 versus MDA-MB-231): 0.64 | Selectivity index (MDA-MB-231; HME1 versus MDA-MB-231): 2.5 | IC50 (MDA-MB-231; Homo sapiens, MDA-MB-231, SRB, mean ± SEM): 450 ± 110 nM | Selectivity index (U87; F180 versus U87): 2.9 | Selectivity index (U87; HME1 versus U87): 11.2 | IC50 (U87; Homo sapiens, U-87 MG, U87, SRB, mean ± SEM): 100 ± 90 nM | Selectivity index (U373; F180 versus U373): 0.33 | Selectivity index (U373; HME1 versus U373): 1.3 | IC50 (U373; Homo sapiens, U373 MG, U373, SRB, mean ± SEM): 880 ± 90 nM | IC50 (F-180): 290 ± 370 nM | IC50 (F-180; listed as doxorubicin): < 1200 nM | IC50 (HME1; HME1 normal epithelial): 1120 ± 190 nM | IC50 (HME1; Homo sapiens, HME1, HME1 normal epithelial): < 1200 nM
